Measurements reported in US20210290680A1, “METHODS AND COMPOSITIONS FOR MODULATING CELLULAR AGING” (Dorian Therapeutics, Inc., priority 2019, published 2021).

Assays:
Type in all cases: cell-based, human
[1] = test system: CDKN2A; assay: qPCR of senescence marker CDKN2A; settings: CD19.CAR, day 15, n=4
Excerpt: Primary T cells were activated as described (Example 3), transduced with a lentivirus encoding for either a CD19.CAR or a GD2.CAR co-expressing shUSP16 #1, shUSP16 #2 or a scrambled shRNA (Control). Fifteen days post-activation, T cells were collected and qPCR performed. TaqMan probes detecting CDKN1A, CDKN2A (FIGS. 26A and 26B) (fold change GD2.CAR (n=4): CDKN1A Control vs shUSP #1: 0.4360, p<0.0001, and Control vs shUSP16 #2: 3.036, p=0.004 respectively. Fold change CD19.CAR (n=4): CDKN2a, CDKN1A Control vs shUSP #1: 0.6906, p=0.0026; 0.7228, p=0.0297 and Control vs shUSP16 #2: 0.8385, p=0.2325; 0.7017, p=0.0021), TCF7, LEF1, and Axin-2 (FIGS. 27A and B) were analyzed in GD2.CAR and CD19.CAR-expressing cells, respectively. ACTB was used as internal control. (GD2.CAR (n=4) TCF7, LEF1 and Axin-2: Control vs shUSP #1: 1.914 p=0.0512; 1.795 p=0.0323; 3.269 p=0.15 and Control vs shUSP16 #2: 1.284 p=0.0494; 1.718 p=0.0586; 2.035p=0.235, respectively. Fold change CD19.CAR (n=4): TCF7, LEF1 and Axin-2: Control vs shUSP #1: 1.528, p=0.0277; 1.82, p=0.0449; 1.998, p=0.031 and Control vs shUSP16 #2: 1.18, p=0.2002; 1.579, p=0.0632; 1.261, p=0.2382). […]

[2] = test system: primary T cells; assay: T cell expansion / proliferation by Trypan Blue cell counts; settings: day 15 post-activation
Method: On Day 0, buffycoats were obtained by a clinical facility, and PBMCs were isolated by density centrifugation using Ficoll™. CD3 enrichment was performed using magnetic beads, PanT cell isolation from Myltenyi Biotec. The T cells were activated with aCD^3/aCD28 Dynabeads (3:1 ratio).
On Day 2, a first round of transduction was performed with lentivirus. On Day 3, a second round of transduction was performed with lentivirus.
On Day 6, the beads were removed. On Day 6-8, Flow cytometry sorting was performed with a FACSAria II (BD).
The cells were cultured in RPMI, 10% FBS, penicillin-streptomycin, and 100IU of IL-2. Cells were plated at a density of 0.3×10^6 cells/ml until day 15, then 0.5×10^6 cells/ml and after day 25 at 1×10^6 cells/ml.
A short hairpin RNA (shRNA) directed against USP16 (shUSP16) was purchased from Dharmacon. […] Between 0.15 and 0.5×10^6 cells were plated post-sorting with a purity higher than 90% and counted every 2-4 days by Trypan Blue exclusion using Vi-CELL XR cell counter (Beckman Coulter). Proliferation was measured as expansion ratio compared to the initial cell seeding. […]
A new set of shRNAs were cloned into the pSIH backbone, where the shRNA expression is driven by the H1 promoter. […] Proliferation was measured as fold increased compared to shControl at day 15 post-activation. […]

[3] = test system: TCF7; assay: qPCR of WNT pathway regulator TCF7; settings: for TCF7 expression, fold change vs Control: CD19.CAR; for TCF7 expression, fold change vs Control / TCF7 expression vs Control: day 15, n=4; for TCF7 expression vs Control: GD2.CAR; for TCF7 expression, fold increase over Control: primary T cells, day 15
Excerpt: Primary T cells were activated as described (Example 3), transduced with a lentivirus encoding either a shUSP16 #1, shUSP16 #2 or a non-targeting shRNA (shCtrl) and cells were selected with puromycin at day 6. At day 15 cell were collected and analyzed by qPCR for the expression of LEF1 (FIG. 16A) and TCF7 (FIG. 16B), downstream regulators of the WNT pathway. At day 20, cells were stained for CD4-PE, CD8-BV510, CD62L-Allophycocyanin and CD45RA-APC-Cy7 (Biolegend). Stem cell memory T cells (Tscm) were identified as Sytox^− GFP^+CD45RA^+CD62L^+, central memory T cells (Tcm) as Sytox^−GFP^+CD45RA^−CD62L^+, effector memory T cells (Tem) as Sytox^−GFP^+CD45RA^−CD62L^−, and terminal effector T cell (Teff) as Sytox^−GFP^+CD45RA^+CD62L^− (FIG. 17A). Cells were gated on the CD8 population. The specific increase of Tscm was shown as phenotype ratio (FIG. 17B).
Primary T cells were activated as described (Example 3), transduced with a lentivirus encoding for either a CD19.CAR or a GD2.CAR co-expressing shUSP16 #1, shUSP16 #2 or a scrambled shRNA (Control). Fifteen days post-activation, T cells were collected and qPCR performed. TaqMan probes detecting CDKN1A, CDKN2A (FIGS. 26A and 26B) (fold change GD2.CAR (n=4): CDKN1A Control vs shUSP #1: 0.4360, p<0.0001, and Control vs shUSP16 #2: 3.036, p=0.004 respectively. Fold change CD19.CAR (n=4): CDKN2a, CDKN1A Control vs shUSP #1: 0.6906, p=0.0026; 0.7228, p=0.0297 and Control vs shUSP16 #2: 0.8385, p=0.2325; 0.7017, p=0.0021), TCF7, LEF1, and Axin-2 (FIGS. 27A and B) were analyzed in GD2.CAR and CD19.CAR-expressing cells, respectively. ACTB was used as internal control. (GD2.CAR (n=4) TCF7, LEF1 and Axin-2: Control vs shUSP #1: 1.914 p=0.0512; 1.795 p=0.0323; 3.269 p=0.15 and Control vs shUSP16 #2: 1.284 p=0.0494; 1.718 p=0.0586; 2.035p=0.235, respectively. Fold change CD19.CAR (n=4): TCF7, LEF1 and Axin-2: Control vs shUSP #1: 1.528, p=0.0277; 1.82, p=0.0449; 1.998, p=0.031 and Control vs shUSP16 #2: 1.18, p=0.2002; 1.579, p=0.0632; 1.261, p=0.2382). USP16 downregulation in CAR-T cells results in a decreased expression of senescence markers and an increase in the expression of genes associated with the activation/increased signaling of the WNT pathway, indicating its importance in delaying cellular senescence and increasing self-renewal.

[4] = test system: CD69; assay: Exhaustion marker CD69 by flow cytometry; settings: for CD69%: day 16, n=3; for reduction of exhaustion marker CD69 expression (shCtrl vs shRNA): primary T cells, day 20
Method: Primary T cells were activated as described (Example 3), transduced with a lentivirus encoding either a shUSP16 #1, shUSP16 #2 or a non-targeting shRNA (shCtrl) and cells were selected with puromycin at day 6. At day 20, T cells were stained for CD69-Allophycocyanin (Biolegend) and T cells analyzed by MACSQuant (Miltenyi Biotec) (FIG. 19). Three primary T cell cultures were analyzed.
Primary T cells were activated as described (Example 3), transduced with a lentivirus encoding for either a CD19.CAR or a GD2.CAR co-expressing shUSP16 #1, shUSP16 #2 or a scrambled shRNA (Control). Cells were cultured in IL-2 and sorted between days 6-13 for EGFRt. At day 16, T cells were stained for exhaustion markers, including CD69.

Substance	CDKN2a expression, fold change vs Control [1]	proliferation, fold increased compared to shControl [2]	TCF7 expression, fold change vs Control [3]	TCF7 expression vs Control [3]	TCF7 expression, fold increase over Control [3]	CD69% ([4]; CD19.CAR) [%]	CD69% ([4]; GD2.CAR) [%]	reduction of exhaustion marker CD69 expression (shCtrl vs shRNA) [4] [%]
shUSP16 #1: shRNA targeting USP16, 5′-GACTGTAAGACTGACAATAAA-3′ (SEQ ID NO: 8), pSIH backbone or co-expressed in CAR plasmid	0.6906	about 1.31 folds	1.528	1.914	2.804	13.70	23.05	41
shUSP16 #2: shRNA targeting USP16, 5′-TATATCAGTTCACCCGTAAT-3′ (SEQ ID NO: 9), pSIH backbone or co-expressed in CAR plasmid	0.8385	~2.33 folds	1.18	1.284	1.428	27.17	27.8	40
